Results taken from ChEMBL document CHEMBL3871286, “Tetrahydroquinoline-based tricyclic amines as potent and selective agonists of the 5-HT2C receptor” (Bioorg Med Chem Lett, 2016).

What was measured:
[1] = target: T1, 5-hydroxytryptamine receptor 2C (Homo sapiens, UniProt P28335); assay: Agonist activity at unedited 5-HT2C receptor (unknown origin) expressed in HEK293 cells assessed as [3H]inositol phosphate accumulation after 2 hrs by scintillation counting; format: functional, cell-based
T1 sequence (P28335 whole entry): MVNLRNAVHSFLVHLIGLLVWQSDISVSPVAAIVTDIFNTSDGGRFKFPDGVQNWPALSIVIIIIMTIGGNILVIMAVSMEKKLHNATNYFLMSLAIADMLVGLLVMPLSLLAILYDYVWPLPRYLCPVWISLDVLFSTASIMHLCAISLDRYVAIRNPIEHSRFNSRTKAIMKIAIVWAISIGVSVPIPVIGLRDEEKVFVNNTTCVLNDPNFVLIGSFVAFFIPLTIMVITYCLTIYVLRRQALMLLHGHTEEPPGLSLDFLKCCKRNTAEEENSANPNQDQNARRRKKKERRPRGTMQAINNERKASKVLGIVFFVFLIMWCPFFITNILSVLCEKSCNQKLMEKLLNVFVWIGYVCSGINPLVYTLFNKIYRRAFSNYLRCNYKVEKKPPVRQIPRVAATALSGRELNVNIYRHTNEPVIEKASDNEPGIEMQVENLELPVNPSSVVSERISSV

5-HT2B receptor = 5-HT2B receptor (Homo sapiens, UniProt P41595); assay: Agonist activity at 5-HT2B receptor (unknown origin) expressed in HEK293 cells assessed as [3H]inositol phosphate accumulation at 10 uM after 2 hrs by scintillation counting relative to serotonin; format: cell-based; settings: HEK293 cells expressing 5-HT2B receptor
Sequence of 5-HT2B receptor (P41595 whole entry): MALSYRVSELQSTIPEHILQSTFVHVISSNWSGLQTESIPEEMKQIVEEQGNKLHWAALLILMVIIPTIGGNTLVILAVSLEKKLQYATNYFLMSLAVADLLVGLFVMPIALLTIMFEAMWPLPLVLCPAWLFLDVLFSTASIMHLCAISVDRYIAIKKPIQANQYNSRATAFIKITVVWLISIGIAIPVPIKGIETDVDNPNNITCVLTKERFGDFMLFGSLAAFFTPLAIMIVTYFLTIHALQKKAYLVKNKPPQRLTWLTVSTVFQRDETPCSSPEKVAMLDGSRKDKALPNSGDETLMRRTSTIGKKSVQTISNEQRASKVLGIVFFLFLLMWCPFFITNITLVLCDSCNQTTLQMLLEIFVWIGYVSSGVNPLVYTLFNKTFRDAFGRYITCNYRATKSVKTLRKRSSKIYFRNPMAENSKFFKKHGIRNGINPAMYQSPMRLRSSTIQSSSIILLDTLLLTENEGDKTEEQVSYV

[2] = target: T2, 5-hydroxytryptamine receptor 2C (Homo sapiens) (UniProt P28335); assay: Agonist activity at unedited 5-HT2C receptor (unknown origin) expressed in HEK293 cells assessed as [3H]inositol phosphate accumulation at 10 uM after 2 hrs by scintillation counting relative to serotonin; format: functional, cell-based
T2 sequence (whole entry): T1 sequence (P28335 whole entry)

[3] = target: T3, 5-hydroxytryptamine receptor 2B (Homo sapiens, UniProt P41595); assay: Agonist activity at 5-HT2B receptor (unknown origin) expressed in HEK293 cells assessed as [3H]inositol phosphate accumulation after 2 hrs by scintillation counting; format: cell-based
T3 sequence (P41595 whole entry): as above

5-HT2A receptor = 5-HT2A receptor (Homo sapiens, UniProt P28223); assay: Agonist activity at 5-HT2A receptor (unknown origin) expressed in HEK293 cells assessed as [3H]inositol phosphate accumulation at 10 uM after 2 hrs by scintillation counting relative to serotonin; format: cell-based; settings: HEK293 cells expressing 5-HT2A receptor
Sequence of 5-HT2A receptor (P28223 whole entry): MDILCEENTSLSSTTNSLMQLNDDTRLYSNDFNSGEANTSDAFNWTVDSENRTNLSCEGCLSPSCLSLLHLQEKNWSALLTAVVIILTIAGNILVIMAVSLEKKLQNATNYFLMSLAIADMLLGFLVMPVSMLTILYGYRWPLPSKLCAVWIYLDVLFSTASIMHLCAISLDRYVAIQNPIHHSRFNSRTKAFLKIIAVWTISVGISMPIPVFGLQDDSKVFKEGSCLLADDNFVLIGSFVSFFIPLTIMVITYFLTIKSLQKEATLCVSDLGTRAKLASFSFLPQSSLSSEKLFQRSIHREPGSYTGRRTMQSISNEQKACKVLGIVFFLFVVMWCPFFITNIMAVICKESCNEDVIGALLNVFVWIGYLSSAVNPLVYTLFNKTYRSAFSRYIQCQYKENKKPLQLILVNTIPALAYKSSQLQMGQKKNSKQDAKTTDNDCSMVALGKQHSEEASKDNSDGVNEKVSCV

[4] = target: T4, 5-hydroxytryptamine receptor 2A (Homo sapiens, UniProt P28223); assay: Agonist activity at 5-HT2A receptor (unknown origin) expressed in HEK293 cells assessed as [3H]inositol phosphate accumulation after 2 hrs by scintillation counting; format: cell-based
T4 sequence (P28223 whole entry): as above

[5] = target: T4, 5-hydroxytryptamine receptor 2A; assay: Displacement of [125I]DOI from recombinant human 5-HT2A receptor expressed in HEK293 cell membranes after 1 hr by scintillation counting
[6] = target: T3, 5-hydroxytryptamine receptor 2B; assay: Displacement of [125I]DOI from recombinant human 5-HT2B receptor expressed in HEK293 cell membranes after 1 hr by scintillation counting
[7] = target: T1, 5-hydroxytryptamine receptor 2C; assay: Displacement of [125I]DOI from recombinant human 5-HT2C receptor expressed in HEK293 cell membranes after 1 hr by scintillation counting

c1ccc2c(c1)CCC1CCNCCCN21 (stereo unspecified)
EC50 ([1]; read-out: EC50): 130 nM
Emax at 2 h, 10 µM (5-HT2B receptor): 60%
Emax [2]: 99%
EC50 [3]: 1000 nM

CCCc1ccc2c(c1)N1CCNCC1CC2 (stereo unspecified)
EC50 ([1]; read-out: pEC50 (converted)): 63.1 nM
Emax at 2 h, 10 µM (5-HT2B receptor): 19%
Emax [2]: 87%
EC50 [3]: 200 nM

c1cc(CC2CCC2)c2c(c1)N1CCCNCC1CC2 (stereo unspecified)
EC50 ([1]; read-out: pEC50 (converted)): 126 nM
Emax [2]: 116%
EC50 [3]: > 1000 nM

COc1cc2c(cc1Cl)N1CCCNC[C@H]1CC2
EC50 ([1]; read-out: pEC50 (converted)): 39.8 nM
Emax at 2 h, 10 µM (5-HT2B receptor): 23%
Emax [2]: 91%
EC50 [3]: 158 nM

CCCc1ccc2c(c1)CCC1CNCCN21 (stereo unspecified)
EC50 ([1]; read-out: pEC50 (converted)): 20 nM
Emax at 2 h, 10 µM (5-HT2B receptor): 9%
Emax [2]: 100%
EC50 [3]: 631 nM

Fc1ccc2c(c1Cl)N1CCNCC1CC2 (stereo unspecified)
EC50 ([1]; read-out: pEC50 (converted)): 6.31 nM
Emax at 2 h, 10 µM (5-HT2B receptor): 12%
Emax [2]: 94%
EC50 [3]: 2 nM

COc1cc2c(cc1Cl)CC[C@@H]1CNCCCN21
EC50 ([1]; read-out: pEC50 (converted)): 3.98 nM
Emax at 2 h, 10 µM (5-HT2B receptor): 84%
Emax [2]: 85%
EC50 [3]: 63.1 nM

c1cc(C2CCC2)c2c(c1)N1CCNCC1CC2 (stereo unspecified)
EC50 ([1]; read-out: pEC50 (converted)): 3.16 nM
Emax at 2 h, 10 µM (5-HT2B receptor): 112%
Emax [2]: 110%
EC50 [3]: 39.8 nM

Clc1cccc(N2CCNCC2)c1 [CHLOROPHENYLPIPERAZINE]
Emax at 2 h, 10 µM (5-HT2A receptor): 12%
Emax at 2 h, 10 µM (5-HT2B receptor): 22%
Emax [2]: 90%

c1csc(Cc2cccc3c2CCC2CNCCN32)c1 (stereo unspecified)
Emax at 2 h, 10 µM (5-HT2A receptor): 94%
EC50 ([1]; read-out: pEC50 (converted)): 0.794 nM
Emax at 2 h, 10 µM (5-HT2B receptor): 24%
EC50 [4]: 79.4 nM
Ki [5]: 25.1 nM
Ki [6]: 25.1 nM
Emax [2]: 106%
EC50 [3]: 398 nM
Ki [7]: 0.316 nM

Cc1cccc2c1N1CCNCC1CC2 (stereo unspecified)
EC50 ([1]; read-out: pEC50 (converted)): 63.1 nM
Emax at 2 h, 10 µM (5-HT2B receptor): 10%
Emax [2]: 86%
EC50 [3]: 50.1 nM

c1ccc(-c2cccc3c2CCC2CNCCN32)cc1 (stereo unspecified)
EC50 ([1]; read-out: pEC50 (converted)): 126 nM
Emax at 2 h, 10 µM (5-HT2B receptor): 72%
Emax [2]: 97%
EC50 [3]: 2510 nM

Fc1ccc2c(c1)N1CCNCC1CC2 (stereo unspecified)
EC50 ([1]; read-out: pEC50 (converted)): 0.794 nM
Emax at 2 h, 10 µM (5-HT2B receptor): 38%
Emax [2]: 100%
EC50 [3]: 31.6 nM

c1cc(OC2CCC2)c2c(c1)N1CCNCC1CC2 (stereo unspecified)
EC50 ([1]; read-out: pEC50 (converted)): 20 nM
Emax at 2 h, 10 µM (5-HT2B receptor): 9%
Emax [2]: 98%
EC50 [3]: 794 nM

COCc1cccc2c1CCC1CNCCN21 (stereo unspecified)
EC50 ([1]; read-out: pEC50 (converted)): 20 nM
Emax at 2 h, 10 µM (5-HT2B receptor): 77%
Emax [2]: 113%
EC50 [3]: 1260 nM

COc1cccc2c1CC[C@@H]1CNCCCN21
EC50 ([1]; read-out: pEC50 (converted)): 1000 nM
Emax at 2 h, 10 µM (5-HT2B receptor): 74%
Emax [2]: 92%
EC50 [3]: 398 nM

Clc1ccc2c(c1)CCC1CCNCCCN21 (stereo unspecified)
EC50 ([1]; read-out: pEC50 (converted)): 200 nM
Emax at 2 h, 10 µM (5-HT2B receptor): 71%
Emax [2]: 83%
EC50 [3]: 631 nM

c1ccc2c(c1)CC[C@@H]1CNCCN21
EC50 ([1]; read-out: pEC50 (converted)): 2.51 nM
Emax at 2 h, 10 µM (5-HT2B receptor): 28%
Emax [2]: 97%
EC50 [3]: 63.1 nM

c1ccc2c(c1)CC[C@H]1CCNCCCN21
EC50 ([1]; read-out: pEC50 (converted)): > 10000 nM
EC50 [3]: > 10000 nM

CC1(C)Cc2cccc(Cl)c2N2CCNCC21 (stereo unspecified)
EC50 ([1]; read-out: pEC50 (converted)): > 10000 nM
Emax at 2 h, 10 µM (5-HT2B receptor): 84%
EC50 [4]: > 10000 nM
Ki [5]: 2000 nM
Ki [6]: 6.31 nM
EC50 [3]: 100 nM
Ki [7]: 794 nM

COc1ccc2c(c1)CCC1CNCCN21 (stereo unspecified)
EC50 ([1]; read-out: pEC50 (converted)): 251 nM
Emax at 2 h, 10 µM (5-HT2B receptor): 57%
Emax [2]: 101%
EC50 [3]: 794 nM

COc1ccc2c(c1)CC[C@@H]1CNCCCN21
EC50 ([1]; read-out: pEC50 (converted)): 631 nM
Emax at 2 h, 10 µM (5-HT2B receptor): 76%
Emax [2]: 80%
EC50 [3]: 1260 nM

COc1cccc2c1N1CCCNC[C@H]1CC2
EC50 ([1]; read-out: pEC50 (converted)): 31.6 nM
Emax at 2 h, 10 µM (5-HT2B receptor): 55%
Emax [2]: 17%
EC50 [3]: 100 nM

COc1ccc2c(c1)N1CCCNC[C@H]1CC2
EC50 ([1]; read-out: pEC50 (converted)): 79.4 nM
Emax at 2 h, 10 µM (5-HT2B receptor): 37%
Emax [2]: 95%
EC50 [3]: 631 nM

Clc1cccc2c1N1CCCNCCC1CC2 (stereo unspecified)
EC50 ([1]; read-out: pEC50 (converted)): 25.1 nM
Emax at 2 h, 10 µM (5-HT2B receptor): 20%
Emax [2]: 85%
EC50 [3]: 100 nM

Fc1ccc2c(c1)CC[C@@H]1CNCCCN21
EC50 ([1]; read-out: pEC50 (converted)): 25.1 nM
Emax at 2 h, 10 µM (5-HT2B receptor): 59%
Emax [2]: 94%
EC50 [3]: 631 nM

Fc1ccc2c(c1Cc1ccccc1)CC[C@@H]1CNCCCN21
EC50 ([1]; read-out: pEC50 (converted)): 20 nM
Emax at 2 h, 10 µM (5-HT2B receptor): 71%
Emax [2]: 108%
EC50 [3]: 7940 nM

COc1cc2c(c(Cl)c1Cl)N1CCCNC[C@H]1CC2
EC50 ([1]; read-out: pEC50 (converted)): 10 nM
Emax at 2 h, 10 µM (5-HT2B receptor): < 5%
Emax [2]: 80%

CC1(C)Cc2ccccc2N2CCNCC21 (stereo unspecified)
EC50 ([1]; read-out: pEC50 (converted)): > 1000 nM
EC50 [3]: > 1000 nM

c1ccc2c(c1)CC[C@@H]1CCNCCCN21
EC50 ([1]; read-out: pEC50 (converted)): 63.1 nM
Emax at 2 h, 10 µM (5-HT2B receptor): 53%
Emax [2]: 86%
EC50 [3]: 501 nM

Fc1ccc2c(c1)CCC1CNCCN21 (stereo unspecified)
EC50 ([1]; read-out: pEC50 (converted)): 3.16 nM
Emax at 2 h, 10 µM (5-HT2B receptor): 44%
Emax [2]: 96%
EC50 [3]: 126 nM

c1ccc(Oc2cccc3c2CCC2CNCCN32)cc1 (stereo unspecified)
EC50 ([1]; read-out: pEC50 (converted)): 100 nM
Emax at 2 h, 10 µM (5-HT2B receptor): 94%
Emax [2]: 112%
EC50 [3]: 6310 nM

CC1(C)CC2CNCCN2c2ccccc21 (stereo unspecified)
EC50 ([1]; read-out: pEC50 (converted)): 1260 nM
Emax [2]: 84%
EC50 [3]: > 10000 nM

CCSc1cccc2c1CCC1CNCCN21 (stereo unspecified)
EC50 ([1]; read-out: pEC50 (converted)): 0.316 nM
Emax at 2 h, 10 µM (5-HT2B receptor): 46%
Emax [2]: 101%
EC50 [3]: 79.4 nM

COc1cc2c(cc1Cc1ccccc1)CC[C@@H]1CNCCCN21
EC50 ([1]; read-out: pEC50 (converted)): > 1000 nM
EC50 [3]: > 1000 nM

COc1ccc2c(c1Cl)N1CCCNC[C@H]1CC2
EC50 ([1]; read-out: pEC50 (converted)): 158 nM
Emax at 2 h, 10 µM (5-HT2B receptor): 7%
Emax [2]: 72%
EC50 [3]: 7.94 nM

Cc1cccc2c1CCC1CNCCN21 (stereo unspecified)
EC50 ([1]; read-out: pEC50 (converted)): 2 nM
Emax at 2 h, 10 µM (5-HT2B receptor): 65%
Emax [2]: 108%
EC50 [3]: 31.6 nM
